A short description of series [1]: Antiviral activity against Influenza A virus (A/California/07/2009(H1N1)). Format: functional.
The nature of series [2]: Antiviral activity against Influenza A virus (A/California/07/09(H1N1)) pdm09 infected in chicken erythrocytes incubated for 1 hr with supernatants from 1 hr compound pre-treated MDCK cells infected with Influenza A virus (A/California/07/2009(H1N1)) pdm09 for 48 hrs assessed as reduction in viral replication by hemagglutination assay. Format: functional, cell-based.
The nature of series [3]: Cytotoxicity against MDCK cells assessed as reduction in cell viability after 48 hrs by MTT assay. Format: toxicity, cell-based, Canis lupus familiaris. To be noted: dog. On the technique in general: Tetrazolium dyes change colour on reduction, which living cells bring about.
Series [4] in a line: Selectivity index, ratio of CC50 for MDCK cells to IC50 for Influenza A virus (A/California/07/09(H1N1)) pdm09. Format: functional.

Converted amounts (≈) assume the structure as drawn.

The term IC50 denotes the concentration that inhibits the measured activity by half. Turning to `C=C(C)[C@@H]1CC=C(C)[C@@H](O)[C@@H]1O`, in series [1], the half-maximal inhibitory concentration (IC50) was 20 µg/mL (≈ 119 µM).

As a reminder, the CC50 is the concentration giving 50% cytotoxicity. Regarding `CC(N)C12CC3CC(CC(C3)C1)C2` (centres undefined) [RIMANTADINE], the IC50 in series [2] amounted to 44 µM. Besides, the CC50 at 48 h in series [3] worked out at 350 µM. Besides, the “Ratio CC50/IC50” value in series [4] came out at 8.

For the origin of these results see ChEMBL document CHEMBL3860052, “Anti-influenza activity of monoterpene-derived substituted hexahydro-2H-chromenes” (Bioorg Med Chem, 2016).
